The values below are quoted from earlier work in patent US6026817A, “Method of treating the syndrome of coronary heart disease risk factors in humans” (priority 1998, dated 2000).

Data set [1] concerns experimental brain trauma. The conditions noted are these: in vivo; cited from earlier work.
The test system of a further data set is adult male rats. The conditions noted are these: intracisternal administration, conscious rats, dose related; cited from earlier work.

As to `Oc1ccc2c3c1O[C@H]1c4[nH]c5c(c4C[C@@]4(O)[C@@H](C2)N(CC2CC2)CC[C@]314)C[C@@]1(O)[C@H]2Cc3ccc(O)c4c3[C@@]1(CCN2CC1CC1)[C@H]5O4` [nor-binaltorphimine], the “outcome after experimental brain trauma” value in data set [1] is recorded as “improves the outcome”.
Regarding “β-endorphin: synthetic human β-endorphin (YGGFMTSEKSQTPLVTLFKNAIIKNAYKKGE; Beta-endorphin; UniProt P01189 237-267, looked up)”, the “plasma concentrations of catecholamines” value in the data set on adult male rats is “increased plasma concentrations of epinephrine, norepinephine, and dopamine”.
